The values that follow come from patent US20220332799A1, “HERV INHIBITORS FOR USE IN TREATING TAUOPATHIES” (Deutsches Zentrum Für Neurodegenerative Erkrankungen E.V. …, priority 2019, published 2022).

Test [1] relates to HEK Tau-FusionRed^sol cells. The test is described as follows: Tau-FusionRed aggregate induction by coculture with T47D Tau-GFP^AD or Tau-GFP^FTLD donor cells. It is filed as cell-based, human. The settings on record: T47D Tau-GFP^AD or Tau-GFP^FTLD donors pretreated one day with 10 μM, coculture 3 d in presence of drug; vs DMSO. The procedure:
FIG. 4: Human endogenous retrovirus proteins potentiate intercellular Tau aggregate induction. • a. Workflow of Amprenavir treatment. […]. Two days later, these donor cells were incubated with 10 μM Amprenavir or solvent control DMSO for 1 d. Subsequently, donor cells with NM-GFP^agg, Tau-GFP^FTLD or Tau-GFP^AD aggregates were cocultured with recipient HEK NM-mCherry^sol or HEK Tau-FusionRed^sol cells, respectively, for 1 d (NM) or 3 d (Tau) in the presence of 10 μM Amprenavir or DMSO. • b. […] Percentage of recipient HEK NM-Cherry cells that harbor induced NM-mCherry aggregates. • c., d. […] Percentage of HEK Tau-FusionRed cells that harbor Tau-FusionRed^agg after coculture with T47D Tau-GFP^agg donor cell lines (n=6, ***, p<0.001; unpaired student t test).
To examine the effect of HERV-K proteins on Tau aggregate spreading, a T47D donor cell line stably expressing Tau-GFP^sol was generated. […]
The treatment of cells with Amprenavir (10 μM; Santa Cruz) and DMSO was performed for 72 h in EV-depleted medium in T175 flasks. Afterwards, the total numbers of viable cells and the viability upon drug treatment were determined using the Vi-VELL™ XR Cell Viability Analyzer (Beckman Coulter). […]

For test [2], the system named is HEK Tau-FRsol cells. Put plainly: Tau-FR aggregate induction by coculture with MCF-7 Tau-GFPAD donor cells. The class given is cell-based, human. The settings on record: donors pretreated with 2 μM for 4 d; coculture 3 d without drug; vs DMSO. How it is done:
FIG. 14: Human endogenous retroviruses contribute to the spreading of protein aggregates. • a. Experimental workflow. A human breast cancer cell line MCF-7 (4) was engineered to stably express Tau-GFP and induced to propagate Tau aggregates by exposure to Alzheimer's disease brain homogenate (AD). A single cell clone was subsequently isolated and used in the experiment (MCF-7 Tau-GFPAD). This donor clone was treated with 2 μM 5-Aza-2-deoxycytidine (Aza) for 4 d to de-repress HERV expression. Pretreated donor cells were cocultured with HEK-Tau-FRsol cells. • b. […] Statistics: Unpaired Student's t-test (n=3). • c. Quantitative analysis of recipient cells with induced Tau-FR aggregates following coculture with DMSO-treated or Aza-treated donor cells. […] Recipients were subsequently cocultured with transduced donors that had been passaged at least 5 times post transduction. • e. shRNA-mediated downregulation of Syncytin-1 mRNA in MCF-7 Tau-GFPAD cells assessed by quantitative real-time PCR. […] Quantitative analysis of recipient cells with induced Tau-FR aggregates following coculture with donors with decreased HERV-W Syncytin-1 expression. […]
To inhibit methyltransferase, MCF-7 Tau-GFPAD cells were treated with 2 μM Aza or DMSO for 4 d. […] Afterwards, the total numbers of viable cells and the viability upon drug treatments were determined using the Vi-VELLTMXR Cell Viability Analyzer (Beckman Coulter). […]

Each structure is given as a SMILES string. “Also recorded” adds a separate entry of the source.

For `CC(C)CN(C[C@@H](O)[C@H](Cc1ccccc1)NC(=O)O[C@H]1CCOC1)S(=O)(=O)c1ccc(N)cc1` [Amprenavir], the “Tau aggregate induction in recipient cells” value in test [1] is given as “significant decrease in Tau aggregate induction in recipient cells; also recorded: impairs Tau-FusionRed aggregate induction”.

Regarding `Nc1ncn([C@H]2C[C@H](O)[C@@H](CO)O2)c(=O)n1` [Decitabine, 5-aza-2′-deoxycytidine], in test [2], the “recipient cells with induced Tau-FR aggregates in cocultures” value is “increased recipient cells with aggregates in cocultures”.
